According to ChEMBL document CHEMBL5154758, “Structure-Activity Relationship Study of Indolin-5-yl-cyclopropanamine Derivatives as Selective Lysine Specific Demethylase 1 (LSD1) Inhibitors” (J Med Chem, 2022):
One block for each compound: values may come before it. The source made the active and inactive calls. No cut-off for these calls is given here.

Columns and labels:
[1] = molecular target: T1, Amine oxidase [flavin-containing] B (Homo sapiens, UniProt P27338); assay: biochemical
T1 sequence (P27338 whole entry): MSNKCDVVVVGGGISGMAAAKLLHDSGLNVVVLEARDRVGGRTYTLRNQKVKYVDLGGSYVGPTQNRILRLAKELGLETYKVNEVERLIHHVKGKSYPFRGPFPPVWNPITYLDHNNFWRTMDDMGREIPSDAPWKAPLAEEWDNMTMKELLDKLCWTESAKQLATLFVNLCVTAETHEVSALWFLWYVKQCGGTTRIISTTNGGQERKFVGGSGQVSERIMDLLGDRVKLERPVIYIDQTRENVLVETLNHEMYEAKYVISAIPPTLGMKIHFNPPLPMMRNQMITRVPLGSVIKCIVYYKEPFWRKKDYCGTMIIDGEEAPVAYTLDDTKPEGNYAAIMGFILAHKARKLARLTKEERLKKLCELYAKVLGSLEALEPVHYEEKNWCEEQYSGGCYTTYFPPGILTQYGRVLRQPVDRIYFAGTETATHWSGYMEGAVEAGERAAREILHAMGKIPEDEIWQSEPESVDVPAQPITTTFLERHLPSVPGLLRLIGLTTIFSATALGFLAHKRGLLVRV
Description: Inhibition of human recombinant MAO-B expressed in baculovirus infected BTI insect cells using luminogenic MAO substrate incubated for 1 hr by luciferin-based luminescence assay

[2] = molecular target: T2, Amine oxidase [flavin-containing] A (Homo sapiens, UniProt P21397); assay: biochemical
T2 sequence (P21397 whole entry): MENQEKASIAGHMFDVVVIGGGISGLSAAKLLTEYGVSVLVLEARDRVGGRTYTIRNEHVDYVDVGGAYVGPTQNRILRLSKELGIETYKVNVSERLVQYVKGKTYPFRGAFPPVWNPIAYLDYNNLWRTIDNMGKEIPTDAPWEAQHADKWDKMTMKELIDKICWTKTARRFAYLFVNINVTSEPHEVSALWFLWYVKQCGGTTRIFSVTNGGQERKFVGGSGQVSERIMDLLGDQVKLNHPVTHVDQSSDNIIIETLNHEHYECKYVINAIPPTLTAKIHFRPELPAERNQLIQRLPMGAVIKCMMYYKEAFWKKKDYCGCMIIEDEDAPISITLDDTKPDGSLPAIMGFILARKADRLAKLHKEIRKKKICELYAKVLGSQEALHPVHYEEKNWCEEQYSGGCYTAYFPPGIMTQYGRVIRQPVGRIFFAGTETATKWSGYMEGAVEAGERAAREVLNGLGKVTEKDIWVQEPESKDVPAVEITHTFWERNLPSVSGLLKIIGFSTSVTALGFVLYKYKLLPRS
Description: Inhibition of human recombinant MAO-A expressed in baculovirus infected BTI insect cells using luminogenic MAO substrate incubated for 1 hr by luciferin-based luminescence assay

MV4-11 [3] = assay: Antiproliferative activity against human MV4-11 cells assessed as inhibition of cell growth incubated for 240 hrs by MTS assay; format: functional, cell-based; conditions: MV4-11, 240 h
[4] = molecular target: T3, Lysine-specific histone demethylase 2 (Homo sapiens, UniProt Q8NB78); assay: Inhibition of human LSD2 using H3K4Me2 peptide as substrate incubated for 60 min by peroxidase-coupled method
T3 sequence (Q8NB78 whole entry): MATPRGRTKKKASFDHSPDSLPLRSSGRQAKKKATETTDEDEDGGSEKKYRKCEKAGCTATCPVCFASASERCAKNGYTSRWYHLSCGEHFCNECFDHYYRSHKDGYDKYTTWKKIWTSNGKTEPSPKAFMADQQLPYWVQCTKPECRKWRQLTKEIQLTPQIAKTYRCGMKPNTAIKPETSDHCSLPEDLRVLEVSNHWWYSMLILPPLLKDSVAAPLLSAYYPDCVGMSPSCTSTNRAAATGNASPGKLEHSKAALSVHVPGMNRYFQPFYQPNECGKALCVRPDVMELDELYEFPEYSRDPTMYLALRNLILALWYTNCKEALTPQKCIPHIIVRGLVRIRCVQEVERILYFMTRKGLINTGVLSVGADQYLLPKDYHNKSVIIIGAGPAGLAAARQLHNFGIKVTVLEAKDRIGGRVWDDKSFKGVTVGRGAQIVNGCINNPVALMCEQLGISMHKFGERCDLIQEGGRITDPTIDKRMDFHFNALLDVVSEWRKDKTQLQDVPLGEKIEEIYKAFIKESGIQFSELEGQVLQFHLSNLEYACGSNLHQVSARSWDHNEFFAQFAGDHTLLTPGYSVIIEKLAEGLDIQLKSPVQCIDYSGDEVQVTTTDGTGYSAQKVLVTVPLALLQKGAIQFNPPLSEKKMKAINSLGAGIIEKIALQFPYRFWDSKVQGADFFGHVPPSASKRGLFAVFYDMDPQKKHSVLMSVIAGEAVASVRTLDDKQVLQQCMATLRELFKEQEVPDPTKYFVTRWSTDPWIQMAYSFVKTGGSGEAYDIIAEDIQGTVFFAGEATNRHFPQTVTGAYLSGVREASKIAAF

RPMI-8226 = assay: Antiproliferative activity against human RPMI-8226 cells assessed as inhibition of cell growth incubated for 240 hrs by MTS assay; format: functional, cell-based; conditions: RPMI-8226, 240 h
MV4-11 [5] = assay: In vivo antitumor activity against human MV4-11 cells xenografted in nu/nu mouse assessed as tumor volume at 10 mg/kg, po qd measured on day 1 (reference value: 154 +/- 53 mm3); format: functional; conditions: time 1 day
MV4-11 [6] = assay: In vivo antitumor activity against human MV4-11 cells xenografted in nu/nu mouse assessed as T/C ratio at 10 mg/kg, po qd measured after 15 days relative to control; format: functional; conditions: time 15 day
[7] = Cmax in ICR mouse at 20 mg/kg, po measured upto 24 hrs by LC-MS/MS analysis; format: ADME, organism-based; design: time < 24 hrs, dose 20 mg/kg, route po; conditions: in vivo
MV4-11 [8] = assay: Induction of differentiation of human MV4-11 cells assessed as morphological changes by measuring reduction in nuclear to cytoplasmic ratio at 2.5 uM incubated for 240 hrs by Wright-Giemsa staining based microscopy; format: functional, cell-based
[9] = Drug metabolism in human liver microsomes assessed as amino dealkylation of parent compound causing M1 metabolite formation at 3 uM incubated for 3 hrs by UPLC/Q-TOF MS analysis; format: ADME, Microsome
[10] = Drug metabolism in monkey liver microsomes assessed as N-acetyl M2 metabolite formation at 3 uM incubated for 3 hrs by UPLC/Q-TOF MS analysis; format: ADME, Macaca mulatta, Microsome; conditions: rhesus monkey
MV4-11 [11] = assay: Induction of differentiation of human MV4-11 cells assessed as morphological changes by measuring segmented nucleus at 2.5 uM incubated for 240 hrs by Wright-Giemsa staining based microscopy; format: functional, cell-based
MV4-11 [12] = assay: In vivo antitumor activity against human MV4-11 cells xenografted in nu/nu mouse assessed as relative tumor volume at 10 mg/kg, po qd measured after 15 days (reference value: 6.85 +/- 1.84 ); format: functional; conditions: time 15 day
[13] = Drug metabolism in monkey liver microsomes assessed as amino dealkylation of parent compound causing M1 metabolite formation at 3 uM incubated for 3 hrs by UPLC/Q-TOF MS analysis; format: ADME, Macaca mulatta, Microsome; conditions: rhesus monkey
[14] = Metabolic stability in rat hepatocytes at 3 uM incubated for 3 hrs by UPLC/Q-TOF MS analysis; format: ADME, cell-based, Hepatocyte
[15] = Metabolic stability in dog hepatocytes at 3 uM incubated for 3 hrs by UPLC/Q-TOF MS analysis; format: ADME, cell-based, Canis lupus familiaris, Hepatocyte
[16] = AUC (0 to infinity) in ICR mouse at 20 mg/kg, po measured upto 24 hrs by LC-MS/MS analysis; format: ADME, organism-based; design: dose 20 mg/kg, time < 24 hrs, route po; conditions: in vivo
MV4-11 [17] = assay: In vivo antitumor activity against human MV4-11 cells xenografted in nu/nu mouse assessed as tumor volume at 20 mg/kg, po qd measured on day 1 (reference value: 154 +/- 53 mm3); format: functional; conditions: time 1 day
MV4-11 [18] = assay: In vivo antitumor activity against human MV4-11 cells xenografted in nu/nu mouse assessed as tumor volume at 20 mg/kg, po qd measured on day 15 (reference value: 959 +/- 111 mm3); format: functional; conditions: time 15 day
MV4-11 [19] = assay: In vivo antitumor activity against human MV4-11 cells xenografted in nu/nu mouse assessed as tumor volume at 10 mg/kg, po qd measured on day 15 (reference value: 959 +/- 111 mm3); format: functional; conditions: time 15 day
[20] = Metabolic stability in mouse hepatocytes at 3 uM incubated for 3 hrs by UPLC/Q-TOF MS analysis; format: ADME, cell-based, Hepatocyte
MV4-11 [21] = assay: Activation of CD86 expression in human MV4-11 cells incubated for 24 hrs by qRT-PCR analysis; format: functional, cell-based; conditions: MV4-11, 24 h
MV4-11 [22] = assay: In vivo antitumor activity against human MV4-11 cells xenografted in nu/nu mouse assessed as T/C ratio at 20 mg/kg,po qd measured after 15 days relative to control; format: functional; conditions: time 15 day
MV4-11 [23] = assay: In vivo antitumor activity against human MV4-11 cells xenografted in nu/nu mouse assessed as relative tumor volume at 20 mg/kg, po qd measured after 15 days (reference value: 6.85 +/- 1.84 ); format: functional; conditions: time 15 day
[24] = Drug metabolism in human liver microsomes assessed as N-acetyl M2 metabolite formation at 3 uM incubated for 3 hrs by UPLC/Q-TOF MS analysis; format: ADME, Microsome
[25] = Half life in ICR mouse at 20 mg/kg, po measured upto 24 hrs by LC-MS/MS analysis; format: ADME, organism-based; conditions: in vivo

Structure (SMILES): CCCC(=O)N1CCc2cc(C3CC3NCC3CCNCC3)ccc21 (stereo not drawn)
IC50 [1]: > 100 µM
IC50 [2]: > 100 µM
IC50 (MV4-11 [3]): 18800 nM

Structure (SMILES): O=C(c1ccccc1)N1CCc2cc(C3CC3NCC3CCNCC3)ccc21 (trans isomer)
IC50 [2]: > 100 µM
IC50 (MV4-11 [3]): 4140 nM

Structure (SMILES): O=S(=O)(c1ccc(-c2ccccc2)cc1)N1CCc2cc(C3CC3NCC3CCNCC3)ccc21 (trans isomer)
IC50 [2]: > 100 µM

Structure (SMILES): N[C@@H]1C[C@H]1c1ccc(NC(=O)c2ccccc2)cc1
Ki [4]: 61 µM

Structure (SMILES): CCC(=O)N1CCc2cc(C3CC3NCC3CCNCC3)ccc21 (trans isomer)
IC50 [1]: > 100 µM
IC50 [2]: > 100 µM
IC50 (MV4-11 [3]): 7660 nM

Structure (SMILES): O=S(=O)(c1ccccc1)N1CCc2cc(C3CC3NC3CC4(CCNCC4)C3)ccc21 (trans isomer)
IC50 [1]: > 100 µM
IC50 [2]: > 100 µM

Structure (SMILES): CC(C)(C)C(=O)N1CCc2cc(C3CC3NCC3CCNCC3)ccc21 (trans isomer)
IC50 (RPMI-8226): > 20 µM
IC50 [2]: > 100 µM
IC50 (MV4-11 [3]): 1230 nM

Further lines, with some results ahead:

IC50 [1]: > 100 µM
Structure (SMILES): COc1cccc(S(=O)(=O)N2CCc3cc(C4CC4NCC4CCNCC4)ccc32)c1 (trans isomer)

IC50 (RPMI-8226): > 20 µM
IC50 [1]: > 100 µM
IC50 [2]: > 100 µM
IC50 (MV4-11 [3]): 1210 nM
Structure (SMILES): O=S(=O)(c1ccccc1)N1CCc2cc(C3CC3NCCC3CCNCC3)ccc21 (trans isomer)

Cmax [7]: 85.7 ng/mL
Drug metabolism [9]: Metabolite_Detected
Drug metabolism [10]: Metabolite_Detected
IC50 (RPMI-8226): > 20 µM
Drug metabolism [13]: Metabolite_Detected
Stability [14]: Stable
Stability [15]: Stable
AUC [16]: 619 ng·h/mL
IC50 [1]: > 100 µM
Stability [20]: Stable
EC50 (MV4-11 [21]): 470 nM
Drug metabolism [24]: Metabolite_Detected
IC50 [2]: > 100 µM
IC50 (MV4-11 [3]): 1360 nM
half-life [25]: 319 min
Structure (SMILES): O=S(=O)(c1ccccc1)N1CCc2cc(C3CC3NCC3CCNCC3)ccc21 (stereo not drawn)
Activity (MV4-11 [5]): 156 mm3
Activity (MV4-11 [6]): 52.29%
Activity (MV4-11 [8]): Active
Activity (MV4-11 [11]): Active
Activity (MV4-11 [12]): 3.58
Activity (MV4-11 [17]): 157 mm3
Activity (MV4-11 [18]): 334 mm3
Activity (MV4-11 [19]): 522 mm3
Activity (MV4-11 [22]): 30.89%
Activity (MV4-11 [23]): 2.12

IC50 [1]: > 100 µM
IC50 [2]: > 100 µM
IC50 (MV4-11 [3]): 2520 nM
Structure (SMILES): CCS(=O)(=O)N1CCc2cc(C3CC3NCC3CCNCC3)ccc21 (trans isomer)
